How the values were obtained:
[1] = assay type: physicochemical
[2] = Acute toxicity (LD50) in the mouse; details: in vivo, read-out: LD₅₀

Nc1nc(=O)c2c([nH]1)NCC(CNc1ccc(C(=O)NC(CCC(=O)O)C(=O)O)cc1)N2C=O (stereo not shown) [Calcium folinate, calcium folinate]
STABILITY AT pH 2 MICROBIOLOGICAL TITRE AFTER 3 MONTHS [1]: 40%
STABILITY AT pH 2 MICROBIOLOGICAL TITRE AFTER 6 MONTHS [1]: 20%
STABILITY AT pH 2 MICROBIOLOGICAL TITRE TIME 0 [1]: 100%
LD50 [2]: > 7000 mg/kg
